Assay results published in paper PMC9570017, “Unorthodox PCNA Binding by Chromatin Assembly Factor 1” (International Journal of Molecular Sciences, 2022).

Tests used:
human PCNA = target: T1, human PCNA (Homo sapiens, UniProt P12004); assay: Isothermal titration calorimetry (ITC), PIP peptide titrated into wild-type PCNA; assay type: binding
T1 construct: His6 (C); made in house; host or cells: E. coli Codon Plus BL21(DE3) pLysS
Description: The wild-type and R426D peptides were expressed as GST fusions in E. coli, purified to homogeneity (see Materials and Methods) and used in isothermal titration calorimetry (ITC) assays with human PCNA purified from E. coli.
Recombinant PCNA, PCNA-Y250I, and the PIP peptides (wild-type, R426D) were expressed and purified as described in the Supplementary Materials section—“Expression and purification of recombinant proteins”. The proteins were dialyzed against three 4-litre changes of ITC buffer containing 10 mM sodium phosphate, pH 7.0, and 10 mM NaCl at 4 °C overnight. The concentrations of PCNA and PIP peptides were determined by measuring tyrosine absorption at A280nm. ITC titrations of peptides into PCNA were performed at 23 °C in the ITC buffer (10 mM sodium phosphate, pH 7.0, 10 mM NaCl) using a MicroCal VP-ITC system. The concentrations of injected wild-type and mutant PIP in the syringe varied from 200 to 500 μM, whereas PCNA in the ITC sample cell varied depending on the experiment from 20 to 50 μM PCNA monomer. The protein and peptide samples were degassed before the ITC run. Data analysis was performed using the MicroCal Origin 7.0 software (OriginLab Corporation, Northampton, MA, USA) and all experiments fit the single binding site model.
Supplementary Materials-Expression and purification of recombinant proteins
S1. Expression and purification of GST-PIP fusion proteins in Escherichia coli Wild-type p150 PIP and R426D peptides were constructed as GST-fusion proteins with a tyrosine at the C-terminus of the peptide. The C-terminal tyrosine was added to aid in peptide detection during the purification by measuring the absorbance at 280 nm. The DNA fragments encoding the GST fusion proteins were inserted into a pGEX-TEV vector, which is essentially a modified pGEX-2T vector where the thrombin cleavage site was replaced with a TEV cleavage site. The pGEX-TEV plasmid was digested with BamHI and EcoRI and ligated to DNA fragments encoding either the p150 PIP wild-type and R426D. The plasmids pGEX-TEV-PIP wild type and pGEX-TEV-PIP R426D were con-firmed by DNA sequencing and then expressed in Escherichia coli host strain TOPP2 (Strat-agene) with 100 µg/ml ampicillin to saturation at 37°C. The next day, the saturated cells were diluted to 0.05 OD measured at A600 nm and the cells were grown at 37°C until the cells reach the mid-exponential phase of 0.6-0.8 at OD A600 nm. The cells were then in-duced with 1 mM isopropyl-D-thiogalactopyranoside (IPTG) for 4 h. Eight litres of cell culture were grown each for the wild-type and R426D mutant. The cells were then har-vested by centrifugation in an Avanti J-26XP high-performance centrifuge from Beckman Coulter with a fixed angle rotor (JLA-8.1000) at 9000 x g for 30 min at 4°C. The pellet from 1 litre cells equivalent was lysed in 10 ml of lysis buffer containing 20 mM Tris pH 7.5, 1 M NaCl, 0.2 mM EDTA, 1 mM DTT, 50 µg/ml lysozyme, 1 mM AEBSF and one tablet of cOmplete™ Mini EDTA-free Protease Inhibitor Cocktail Tablets (Roche). The cell pellet was sonicated in the lysis buffer on ice, at power output level 4 with 10 seconds pulse on and 30 seconds off at 6 watts using a Misonix 3000 Ultrasonic cell disruptor and wider probe. The lysate was clarified by centrifugation for 30 min in an Avanti J-26XP with a fixed angle rotor 25.50 at 30966 x g at 4°C. The clarified supernatant was incubated on a nutator for 6 h at 4°C with 10 ml of glutathione-Sepharose (GSH) resin (Amersham) pre-washed and equilibrated with lysis buffer. After incubation the GSH resin was pelleted, the unbound supernatant was removed, and the resin was washed thrice with lysis buffer and twice with Tobacco Etch Virus (TEV) protease buffer (20 mM sodium phosphate pH 6.5, 50 mM NaCl, 2 mM DTT). The peptide was cleaved from the GSH resin by incubating in the presence of TEV protease overnight at 4°C. The next day, the supernatant was har-vested by centrifugation, and the GSH resin was washed twice with 20 mM sodium phos- […]

PCNA-Y250I = assay: Isothermal titration calorimetry (ITC), wild-type PIP titrated into PCNA-Y250I; assay type: binding, human; details: 23 °C, 10 mM sodium phosphate, pH 7.0, 10 mM NaCl
Protocol: Recombinant PCNA, PCNA-Y250I, and the PIP peptides (wild-type, R426D) were expressed and purified as described in the Supplementary Materials section—“Expression and purification of recombinant proteins”. The proteins were dialyzed against three 4-litre changes of ITC buffer containing 10 mM sodium phosphate, pH 7.0, and 10 mM NaCl at 4 °C overnight. The concentrations of PCNA and PIP peptides were determined by measuring tyrosine absorption at A280nm. ITC titrations of peptides into PCNA were performed at 23 °C in the ITC buffer (10 mM sodium phosphate, pH 7.0, 10 mM NaCl) using a MicroCal VP-ITC system. The concentrations of injected wild-type and mutant PIP in the syringe varied from 200 to 500 μM, whereas PCNA in the ITC sample cell varied depending on the experiment from 20 to 50 μM PCNA monomer. The protein and peptide samples were degassed before the ITC run. Data analysis was performed using the MicroCal Origin 7.0 software (OriginLab Corporation, Northampton, MA, USA) and all experiments fit the single binding site model. […]
S1. […] The C-terminal tyrosine was added to aid in peptide detection during the purification by measuring the absorbance at 280 nm. […] The next day, the saturated cells were diluted to 0.05 OD measured at A600 nm and the cells were grown at 37°C until the cells reach the mid-exponential phase of 0.6-0.8 at OD A600 nm. […]

[1] = Size exclusion chromatography of PCNA-Y250I; assay type: physicochemical
Protocol: S3. Expression and purification of wild-type and mutant PCNA proteins in Escherichia […]
PCNA wild-type and mutants were expressed and purified as previously reported. In short, wild-type or mutant plasmids in pET23-C-His6-PCNA vectors were trans-formed and expressed in Codon Plus BL21(DE3) pLysS E. coli (Stratagene) cells. Single colonies were inoculated and grown overnight in the Luria-Bertani medium containing 100 µg/mL ampicillin to saturation at 37°C. The next day the cells were diluted and grown to mid-exponential phase (0.6-0.8) at OD600 nm, and the expression was induced with 1 mM isopropyl-β-D-thiogalactopyranoside (IPTG) for 4 h. PCNA mutants were transformed and expressed in a similar way.
Cells were spun in an Avanti J-26XP high performance centrifuge from Beckman Coul-ter with a fixed angle rotor (JLA-8.1000) at 9000 x g for 30 min at 4°C and the pellets from 1 litre of cell culture were resuspended in 50 mL of lysis buffer containing 50 mM sodium phosphate pH 8.0, 150 mM NaCl, 10% glycerol, 20 mM imidazole, 0.02% nonidet P-40, 2 mM DTT. […]
The eluate was subsequently purified with a Superdex™ 200 gel filtration column (GE Healthcare) in gel filtration buffer 20 mM Tris pH 7.5, 150 mM NaCl, 1 mM DTT. The fractions corresponding to PCNA homotrimer were pooled, concentrated with an amicon concentrator with 3 kDa MWCO, quantified using absorbance at A280 nm, and stored at - […]

[2] = ITC at 296 K, 10 mM Na-phosphate (pH 7.0), 10 mM NaCl

T1 sequence (P12004 whole entry): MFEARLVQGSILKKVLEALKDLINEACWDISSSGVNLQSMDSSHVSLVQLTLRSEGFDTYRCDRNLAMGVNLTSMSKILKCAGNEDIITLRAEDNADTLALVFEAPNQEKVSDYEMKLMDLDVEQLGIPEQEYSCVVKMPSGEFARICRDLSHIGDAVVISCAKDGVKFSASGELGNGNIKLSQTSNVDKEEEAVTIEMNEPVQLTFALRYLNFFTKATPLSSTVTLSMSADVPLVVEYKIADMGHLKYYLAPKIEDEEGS

Row | Substance | N (stoichiometry of peptide binding per PCNA monomer) (human PCNA; [2]) | ΔG (human PCNA; [2]) [kcal/mol] | ΔH (human PCNA; [2]) [kcal/mol] | ΔS (human PCNA; [2]) [cal K^−1 mol^−1] | Kd (human PCNA; ITC at 296 K, 10 mM Na-phosphate (pH 7.0), 10 mM NaCl, one binding site per PCNA monomer, PIP 200 to 500 μM in syringe, PCNA 20 to 50 μM monomer) [µM] | stoichiometry (PIP per PCNA monomer) (human PCNA; ITC, 23 °C, 10 mM sodium phosphate, pH 7.0, 10 mM NaCl) | heat exchange / binding to PCNA-Y250I (PCNA-Y250I) | aggregation [1]
1 | KAEITRFF [CAF-1 PIP wild type, wild-type p150 PIP expressed as GST fusion with C-terminal tyrosine, TEV-cleaved and purified, used for ITC] | 0.83 | -6.25 | -1.868 | 14.8 | 24 | 0.83 | no detectable heat exchange observed by ITC | –
2 | PCNA-Y250I: PCNA mutated at the tyrosine involved in the cation-π interaction with CAF-1 p150 Arg426 | – | – | – | – | – | – | – | no evidence of aggregation
